Patent US20030073850A1, “4-Imidazole derivatives of benzyl and restricted benzyl sulfonamides, sulfamides, ureas, carbamates, and amides and their use” (priority 1998, published 2003)
pKi: −log10 of the molar value. Where two headings read alike, the source gives them in different places.

Tests used:
[1] = biological target: T1, α1b (hamster receptor expressed in mouse fibroblasts) (Mesocricetus auratus, UniProt P18841); assay: Radioligand binding, [3H]-prazosin, α1b
T1 construct: expressed in transfected cells; host or cells: mouse fibroblasts
T1 sequence (P18841 1-515): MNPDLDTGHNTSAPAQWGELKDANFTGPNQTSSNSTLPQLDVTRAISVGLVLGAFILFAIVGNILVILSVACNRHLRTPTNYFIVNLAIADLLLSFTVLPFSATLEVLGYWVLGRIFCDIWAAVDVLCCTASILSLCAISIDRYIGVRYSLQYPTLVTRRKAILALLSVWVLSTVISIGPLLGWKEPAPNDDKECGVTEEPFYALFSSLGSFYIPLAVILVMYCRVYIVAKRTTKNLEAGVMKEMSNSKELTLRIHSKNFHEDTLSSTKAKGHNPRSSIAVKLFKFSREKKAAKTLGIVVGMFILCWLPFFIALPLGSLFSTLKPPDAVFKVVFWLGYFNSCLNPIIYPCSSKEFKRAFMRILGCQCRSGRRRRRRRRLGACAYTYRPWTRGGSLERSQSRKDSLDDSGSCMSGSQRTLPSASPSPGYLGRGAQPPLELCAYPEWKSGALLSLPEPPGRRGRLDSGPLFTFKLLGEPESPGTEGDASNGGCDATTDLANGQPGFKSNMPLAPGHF
Summary of the method: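 [3H]-prazosin radioligand displacement; α1A from rat submaxillary gland tissue, α1b hamster and α1d rat receptors each expressed in mouse fibroblasts.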

α1A (rabbit urethra) = biological target: T2, α1A (rabbit urethra) (Oryctolagus cuniculus, UniProt O02824); assay: Agonist tissue response, contraction of rabbit urethra; type: biochemical; conditions: values without asterisk, read-out: Agonist Tissue Response (pD2) α1A (rab ureth) (converted)
T2 construct: tested for α1A functional activity using rabbit urethra; from tissue; host or cells: rabbit urethra (female New Zealand white rabbits)
T2 sequence (O02824 1-466): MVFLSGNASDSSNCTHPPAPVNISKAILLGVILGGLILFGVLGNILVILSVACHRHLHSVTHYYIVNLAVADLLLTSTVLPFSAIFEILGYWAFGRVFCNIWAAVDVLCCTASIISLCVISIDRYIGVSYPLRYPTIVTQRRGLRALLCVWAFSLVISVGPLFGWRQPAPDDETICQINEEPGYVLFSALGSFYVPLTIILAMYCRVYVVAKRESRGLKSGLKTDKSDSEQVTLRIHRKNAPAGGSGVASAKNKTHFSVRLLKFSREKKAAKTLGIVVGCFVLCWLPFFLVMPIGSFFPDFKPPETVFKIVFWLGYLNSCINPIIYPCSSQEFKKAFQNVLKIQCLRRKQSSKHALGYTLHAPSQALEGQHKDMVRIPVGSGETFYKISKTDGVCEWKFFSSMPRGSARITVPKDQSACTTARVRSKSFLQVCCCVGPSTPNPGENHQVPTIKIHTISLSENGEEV
Description: Most of the compounds were tested for α1A functional activity using rabbit urethra as follows. Female New Zealand white rabbits (2.0-3.5 Kg) were sedated with CO2 and decapitated. […] Subsequent experimental conditions were as described above for the other tissues. Agonist concentration response curves were cumulative except for the vas deferens assay in which the transient response made such measurements impractical.

[2] = biological target: T3, α1A (rat submaxillary gland) (Rattus norvegicus, UniProt P43140); assay: Radioligand binding, [3H]-prazosin, α1A
T3 construct: α1A (rat submaxillary gland); from tissue; host or cells: rat submaxillary gland
T3 sequence (P43140 1-466): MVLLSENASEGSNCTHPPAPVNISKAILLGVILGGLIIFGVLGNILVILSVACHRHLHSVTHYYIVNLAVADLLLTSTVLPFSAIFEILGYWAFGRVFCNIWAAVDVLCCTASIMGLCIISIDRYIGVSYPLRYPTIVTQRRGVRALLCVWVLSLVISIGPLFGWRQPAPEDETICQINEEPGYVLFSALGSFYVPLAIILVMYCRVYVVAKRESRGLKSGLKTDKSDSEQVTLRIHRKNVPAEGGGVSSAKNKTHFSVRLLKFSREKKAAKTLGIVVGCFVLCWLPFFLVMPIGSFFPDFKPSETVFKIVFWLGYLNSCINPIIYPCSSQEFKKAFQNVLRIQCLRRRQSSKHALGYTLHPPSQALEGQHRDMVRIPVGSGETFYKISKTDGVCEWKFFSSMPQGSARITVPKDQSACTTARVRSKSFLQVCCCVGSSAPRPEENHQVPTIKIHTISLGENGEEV
Description: (§1) For purposes of discussing a, adrenoceptor subtypes, the IUPHAR convention of using lower case letters to define molecular clones and upper case letters to indicate pharmacologically defined adrenoceptors has been followed. Compounds of formula I were evaluated in radioligand binding assays specific for α1A (rat submaxillary gland), α1b (hamster receptor expressed in mouse fibroblasts) and α1d (rat receptor expressed in mouse fibroblasts) using [^3H]-prazosin as the radioligand as described in Knepper, et al. J. Pharm.

[3] = biological target: T4, α1d (rat receptor expressed in mouse fibroblasts) (Rattus norvegicus, UniProt P23944); assay: Radioligand binding, [3H]-prazosin, α1d
T4 construct: expressed in transfected cells; host or cells: mouse fibroblasts
T4 sequence (P23944 1-561): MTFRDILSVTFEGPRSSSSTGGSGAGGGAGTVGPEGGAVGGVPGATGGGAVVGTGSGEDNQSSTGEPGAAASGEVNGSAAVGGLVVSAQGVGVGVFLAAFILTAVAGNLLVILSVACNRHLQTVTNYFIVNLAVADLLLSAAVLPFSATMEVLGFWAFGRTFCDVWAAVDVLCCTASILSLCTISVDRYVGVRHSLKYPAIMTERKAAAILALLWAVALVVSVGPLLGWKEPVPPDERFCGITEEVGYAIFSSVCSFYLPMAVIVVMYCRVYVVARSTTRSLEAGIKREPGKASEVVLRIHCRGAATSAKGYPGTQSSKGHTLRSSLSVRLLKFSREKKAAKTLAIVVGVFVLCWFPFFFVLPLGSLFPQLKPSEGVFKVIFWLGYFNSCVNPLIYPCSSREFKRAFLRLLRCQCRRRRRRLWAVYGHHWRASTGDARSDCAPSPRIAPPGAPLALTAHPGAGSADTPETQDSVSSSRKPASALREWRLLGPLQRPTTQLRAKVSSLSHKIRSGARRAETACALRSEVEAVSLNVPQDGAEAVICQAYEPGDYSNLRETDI
Description: as §1

anesthetized dogs [4] = assay: Intraurethral pressure (IUP) in anesthetized dogs; type: in vivo, dog; conditions: for ED (5 mm Hg): Canis lupus familiaris, iv dose causing a maximum increase in IUP of 5 mm Hg, anesthetized female Beagle dogs, read-out: Mean IUP ED5; for Mean Selectivity Ratio MAP ED20/IUP ED5: anesthetized dogs, iv
Source text: (§2) Female Beagle dogs (Marshall Farms, North Rose, N.Y.) greater that 2 years of age and weighing between 12 and 15 kg were used in these studies. At least 2 weeks prior to any agonist dosing, dogs were instrumented for the chronic measurement of arterial blood pressure by implanting a telemetry transducer/transmitter (TA11PA-C40, Data Sciences International, St. Paul, Minn.) into a carotid artery.
(§3) On the test day, dogs fasted since the previous afternoon were pre-anesthetized with thiopental sodium 15 mg/kg i.v. (Pentothal™, Abbott) and intubated. Anesthesia was maintained by allowing the dog to spontaneously breathe a mixture of isoflurane (2.5 to 3 volume %) and oxygen delivered by a Narkomed Standard anesthesia system (North American Drager, Telford, Pa.). An Abbocath-T™ i.v. catheter (18-G, Abbott) was inserted into the cephalic vein for the administration of agonists. A telemetry receiver (RA1310, DataSciences) was placed under the head of each dog and was interfaced to a computerized data acquisition system (Modular Instruments Inc.(MI2), Malvern, Pa.) which allowed for the continuous calibrated recording of arterial blood pressure which was electronically filtered to determine its mean value (MAP).
Dogs with chronic telemetry implants anesthetized as described above were placed in dorsal recumbency and a balloon catheter was inserted into the urethral orifice and advanced approximately 15 cm until the tip was well inside the bladder. The balloon was then inflated with 1 ml of room air and the catheter slowly withdrawn until resistance (corresponding to the bladder neck) was evident. The balloon was then deflated and the catheter withdrawn additional 2 cm. The balloon was then reinflated and its catheter port connected to a Gould Statham P23Dd pressure transducer interfaced to a computerized data acquisition system (Modular Instruments, Inc., Malvern, Pa.) for the measurement of the intraurethral pressure. Increasing iv doses of test agonists were administered and the maximum effect of each dose on IUP was recorded. The effect of each dose was allowed to return to baseline before the next dose was given.
(§4) From the resulting dose response curve, an ED5 value, for the dose causing a maximum increase in IUP of 5 mm Hg, could be estimated. An ED20 value for the dose causing a maximum increase in MAP of 20 mm Hg could also be estimated. A selectivity ratio of MAP ED20 vs. IUP ED, was calculated.

anesthetized dogs [5] = assay: Mean arterial pressure (MAP) in anesthetized dogs; type: in vivo, dog; conditions: iv dose causing a maximum increase in MAP of 20 mm Hg, anesthetized female Beagle dogs
Source text: as §2, §3, §4

[6] = hamster receptor expressed in mouse fibroblasts, [3H]-prazosin, read-out: Radioligand Binding Ki α1b (Hamster)
[7] = rat receptor expressed in mouse fibroblasts, [3H]-prazosin, read-out: Radioligand Binding Ki α1d (Rat)

Compound	pKi [1, 6]	pKi [3, 7]	Mean MAP ED20 (anesthetized dogs [5]) [nmol/kg]	pKi [1]	EC50 (α1A (rabbit urethra)) [µM]	pKi [2]	pKi [3]	ED (5 mm Hg) (anesthetized dogs [4]) [µmol/kg]	Mean Selectivity Ratio MAP ED20/IUP ED5 (anesthetized dogs [4])	melting point [°C]
O=C(Nc1cccc2c1CCCC2c1c[nH]cn1)OCC(Cl)(Cl)Cl (stereo not shown) [Example 121, 2,2,2-trichloroethyl 5-(1H-imidazol-4-yl)-5,6,7,8-tetrahydro-1-naphthalenylcarbamate]	–	–	–	5.73	3.72	6.64	6.02	–	–	–
O=S(=O)(C=Cc1ccccc1)Nc1cccc2c1CCCC2c1cnc[nH]1 (stereo not shown) [Example 70, N-[5-(1H-imidazol-5-yl)-5,6,7,8-tetrahydro-1-naphthalenyl]-2-phenyl-1-ethenesulfonamide]	6.41	6.45	–	–	81.3	6.37	–	–	–	–
O=C(Nc1cccc2c1CCCC2c1c[nH]cn1)N1CCOCC1 (stereo not shown) [Example 117, N-[5-(1H-imidazol-4-yl)-5,6,7,8-tetrahydro-1-naphthalenyl]-4-morpholinecarboxamide]	–	–	645	5.00	5.37	5.96	5.00	0.873	0.75	–
O=S(=O)(Cc1ccccc1)Nc1cccc2c1CCCC2c1cnc[nH]1 (stereo not shown) [Example 67, N-[5-(1H-imidazol-5-yl)-5,6,7,8-tetrahydro-1-naphthalenyl](phenyl)methanesulfonamide]	5.62	5.43	–	–	107	6.05	–	–	–	–
CS(=O)(=O)Nc1cc(F)cc2c1OCCC2c1c[nH]cn1.O=C(O)/C=C\C(=O)O (stereo not shown) [Example 90, N-[6-fluoro-4-(1H-imidazol-4-yl)-3,4-dihydro-2H-chromen-8-yl]methanesulfonamide Maleate]	5.00	5.00	–	–	0.49	6.63	–	–	–	187 to 190
O=C(Nc1cccc2c1CCCC2c1c[nH]cn1)N1CCCCC1 (stereo not shown) [Example 114, N-[5-(1H-imidazol-4-yl)-5,6,7,8-tetrahydro-1-naphthalenyl]-1-piperidinecarboxamide]	5.00	5.25	1074.07	–	9.12	5.98	–	1.68	0.97	–
C=C(c1cccc(NS(C)(=O)=O)c1)c1c[nH]cn1 [Example 92, N-{3-[1-(1H-imidazol-4-yl)vinyl]phenyl}methanesulfonamide]	5.00	5.70	652.06	–	3.24	6.16	–	0.397	–	–
CC(C)[C@H]1CC[C@H](C)C[C@@H]1OC(=O)Nc1cccc2c1CCCC2c1c[nH]cn1 (stereo partly drawn) [Example 123, (1S,2R,5S)-2-isopropyl-5-methylcyclohexyl 5-(1H-imidazol-4-yl)-5,6,7,8-tetrahydro-1-naphthalenylcarbamate]	5.87	6.16	–	–	6.17	5.89	–	–	–	–

More lines, main results first:

pKi [1, 6]	pKi [3, 7]	Mean MAP ED20 (anesthetized dogs [5]) [nmol/kg]	Compound	pKi [1]	EC50 (α1A (rabbit urethra)) [µM]	pKi [2]	pKi [3]	ED (5 mm Hg) (anesthetized dogs [4]) [µmol/kg]	Mean Selectivity Ratio MAP ED20/IUP ED5 (anesthetized dogs [4])	melting point [°C]
5.00	5.00	–	COCCN(CCOC)C(=O)Nc1cccc2c1CCCC2c1c[nH]cn1 (stereo not shown) [Example 116, N′-[5-(1H-imidazol-4-yl)-5,6,7,8-tetrahydro-1-naphthalenyl]-N,N-bis(2-methoxyethyl)urea]	–	9.33	5.53	–	–	–	–
5.00	5.00	–	CCCN(CCC)C(=O)Nc1cccc2c1CCCC2c1c[nH]cn1 (stereo not shown) [Example 112, N′-[5-(1H-imidazol-4-yl)-5,6,7,8-tetrahydro-1-naphthalenyl]-N,N-dipropylurea]	–	7.94	5.91	–	–	–	–
5.00	5.00	500	CC1CC(C)CN(C(=O)Nc2cccc3c2CCCC3c2c[nH]cn2)C1 (stereo not shown) [Example 115, N-[5-(1H-imidazol-4-yl)-5,6,7,8-tetrahydro-1-naphthalenyl]-3,5-dimethyl-1-piperidinecarboxamide]	–	5.5	5.94	–	0.5	1.05	–
5.00	5.68	733.7	CCN(C(=O)Nc1cccc2c1CCCC2c1c[nH]cn1)C1CCCCC1 (stereo not shown) [Example 113, N-cyclohexyl-N-ethyl-N′-[5-(1H-imidazol-4-yl)-5,6,7,8-tetrahydro-1-naphthalenyl]urea]	–	3.98	6.27	–	–	–	–
